From publication PMC8151276, “An Integrated Approach toward NanoBRET Tracers for Analysis of GPCR Ligand Engagement” (Molecules, 2021)

Target: T1, TACR1 (Homo sapiens, UniProt P25103)
T1 construct: purchased Promega (in-house HiBiT-GPCR construct library, NanoBRET)
Test: NanoBRET screen HiBiT-TACR1 in HEK293
Format: binding
Experimental: Each tracer candidate was screened across the entire library of HiBiT-GPCR constructs using NanoBRET as the detection modality. As depicted in Figure 4A, the specificity of interactions was evaluated through decrease in BRET due to competitive displacement of a bound tracer by excess parental compound. Each tracer was analyzed for binding to each HiBiT-GPCR fusion in the absence and in the presence of competing parental compound. Briefly, HEK293 cells were transfected with HiBiT-GPCR constructs diluted into promoterless DNA to reduce expression and maximize translocation to the cell surface. Each tracer candidate was then screened at concentrations of 1 μM and 0.1 μM across cells expressing these fusions. Cells were treated for 1.5 h with tracer either alone or in the presence of 20 μM competing parental compound (i.e., control). BRET was measured upon addition of purified LgBiT and subsequent complementation with HiBiT genetically fused to a GPCR. The specificity of interactions was assessed through a decrease in BRET signal due to competitive displacement of the bound tracer. To further gauge the robustness of these interactions, the fold response over the control (i.e., BRETtracer/BRETcontrol) was calculated. We chose a 1.5-fold response, which translates to ≥7-fold signal over noise as the minimal threshold required to score an interaction as positive.
HiBiT-GPCR DNA constructs were diluted in 10 mM Tris pH 8 to a final concentration of 0.01 μg/μL, arrayed in 96-well plates and stored at −20 °C. For transfection, HEK293 cells were suspended in Opti-MEM (without phenol red) supplemented with 2% fetal bovine serum (Seradigm) and 100 units/mL penicillin–streptomycin (Gibco) at a final concentration of 220,000 cells/mL and dispensed into white 96-well plates at 90 μL/well. Subsequent transfections and screens were carried using an Agilent Bravo Automated Liquid Handling Platform. First, the 96-well HiBiT DNA arrays were diluted 25-fold in Opti-MEM (without serum or phenol red) to a final concentration of 0.0004 μg/μL and 20 μL of the diluted DNAs were transferred into new 96-well plates. Next, promoterless carrier DNA (1 μg/μL) was diluted 25-fold (0.04 μg/μL) and then dispensed into the diluted arrays at 20 μL/well. Following brief mixing, Viafect transfection reagent (Promega) diluted 16-fold into Opti-MEM was dispensed into the plates at 40 μL/well. After mixing by pipetting, plates were incubated for 10 min on the pipetting station deck. The DNA-transfection reagent complexes were then added to plates containing cells. To facilitate the screen, 10 μL of DNA-transfection reagent complexes were added in duplicates to the top 4 and bottom 4 rows, resulting in two identical 48-well arrays per plate. Plates with transfected cells were incubated for 18–20 h at 37 °C/5% CO2. A screen of each tracer across the entire library using two different concentrations requires duplicate plates of transfected cells. Depending on the number of tracers being screened, transfections can be scaled up using the same ratios. The next day, for each tracer, four 20× screening solutions in tracer dilution buffer (Promega) were prepared: two duplicates at final concentration of 20 μM and two duplicates at a final concentration of 2 μM. […] The four resulting solutions were diluted 4-fold in Opti-MEM without serum or phenol red to generate 5× solutions (5 µM and 0.5 µM tracer +/− 100 μM competing compound). To screen the library, a BioTek MultiFlo FX liquid dispenser was used to dispense 22.5 µL of tracer solution to the top 4 rows and 22.5 µL tracer + competing compound solution to the 4 bottom rows. Plates were briefly mixed on an orbital shaker and incubated for 1.5 h at room temperature. […] Plates were briefly mixed on an orbital shaker and incubated for 15 min to allow complementation.

T1 sequence (P25103 whole entry): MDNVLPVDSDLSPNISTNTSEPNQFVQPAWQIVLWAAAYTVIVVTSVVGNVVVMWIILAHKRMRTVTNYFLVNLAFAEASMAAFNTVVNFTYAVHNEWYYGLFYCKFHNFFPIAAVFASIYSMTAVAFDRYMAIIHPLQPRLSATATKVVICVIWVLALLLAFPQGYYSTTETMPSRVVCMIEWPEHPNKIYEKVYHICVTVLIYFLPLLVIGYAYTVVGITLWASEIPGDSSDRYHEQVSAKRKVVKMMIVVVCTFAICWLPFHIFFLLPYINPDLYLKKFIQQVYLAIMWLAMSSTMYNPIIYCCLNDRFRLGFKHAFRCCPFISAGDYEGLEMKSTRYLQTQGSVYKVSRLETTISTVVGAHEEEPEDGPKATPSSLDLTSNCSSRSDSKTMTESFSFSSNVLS

SMILES | NanoBRET Fold Response (TACR1, tracer 0.1μM) | NanoBRET Fold Response (TACR1, tracer 1μM) | also measured
CCOC(=O)c1cc(C#N)c(N2CCC(C(=O)NS(=O)(=O)Cc3ccccc3/C=C/C(=O)NCCNC(=O)CCc3ccc4n3[B-](F)(F)[N+]3=C(c5ccc[nH]5)C=CC3=C4)CC2)nc1C [AZD1283-1-NB590] |  |  | NanoBRET Fold Response (TACR1, 0.1μM): 1.06; NanoBRET Fold Response (TACR1, 1μM): 1.09
N#CN=C(NCCCOc1cccc(CN2CCCCC2)c1)NCCNC(=O)CCOCCOCCOCCOCCNC(=O)CCc1ccc2n1[B-](F)(F)[N+]1=C(c3ccc[nH]3)C=CC1=C2 [Aminopotentidine-2-NB590] | 1.01 | 1.02 | 
CN(C)CCC=C1c2ccccc2CCc2ccc(C(=O)NCCNC(=O)CCOCCOCCOCCOCCNC(=O)CCc3ccc4n3[B-](F)(F)[N+]3=C(c5ccc[nH]5)C=CC3=C4)cc21 [Amitriptyline-a-2-NB590] |  |  | NanoBRET Fold Response (tracer at 0.1μM): 1.17; NanoBRET Fold Response (tracer at 1μM): 1.18
CN(C)CCC=C1c2ccccc2CCc2ccc(C(=O)NCCNC(=O)CCOCCOCCOCCOCCNC(=O)CCc3ccc4n3[B-](F)(F)[N+]3=C(c5ccc[nH]5)C=CC3=C4)cc21 [Amitriptyline-b-2-NB590] |  |  | NanoBRET Fold Response (tracer at 0.1μM, listed as amitriptyline-b-2-NB590): 1.45; NanoBRET Fold Response (tracer at 1μM, listed as amitriptyline-b-2-NB590): 1.07
COc1ccc2c(n1)c(CCNC(C)=O)cn2CCNC(=O)CCc1ccc2n1[B-](F)(F)[N+]1=C(c3ccc[nH]3)C=CC1=C2 [Azamelatonin-1-NB590] |  |  | NanoBRET Fold Response (0.1μM tracer): 0.98; NanoBRET Fold Response (1μM tracer): 0.89
COc1ccc2[nH]c(-c3ccc(CNC(=O)CCOCCOCCOCCOCCNC(=O)CCc4ccc5n4[B-](F)(F)[N+]4=C(c6ccc[nH]6)C=CC4=C5)cc3)c(CCNC(C)=O)c2n1 [AzomelatoninICO9-2-NB590] |  |  | NanoBRET Fold Response (0.1μM tracer): 1.08; NanoBRET Fold Response (1μM tracer): 0.85
O=C(CCOCCOCCOCCOCCNC(=O)CCc1ccc2n1[B-](F)(F)[N+]1=C(c3ccc[nH]3)C=CC1=C2)NCCCN1CCN(C2=Nc3cc(Cl)ccc3Nc3ccccc32)CC1 [Clozapine-a-2-NB590] |  |  | NanoBRET Fold Response (TACR1, 0.1μM tracer): 1.15; NanoBRET Fold Response (TACR1, 1μM tracer): 1.01
CN1CCN(C2=Nc3cc(Cl)ccc3Nc3ccc(CNC(=O)CCOCCOCCOCCOCCNC(=O)CCc4ccc5n4[B-](F)(F)[N+]4=C(c6ccc[nH]6)C=CC4=C5)cc32)CC1 [Clozapine-b-2-NB590] |  |  | NanoBRET Fold Response (TACR1, 0.1μM tracer): 1.06; NanoBRET Fold Response (TACR1, 1μM tracer): 1.08
CN1CCN(C2=Nc3cc(Cl)ccc3N(CC(=O)NCCOCCOCCOCCOCCNC(=O)CCc3ccc4n3[B-](F)(F)[N+]3=C(c5ccc[nH]5)C=CC3=C4)c3ccccc32)CC1 [Clozapine-c-2-NB590] |  |  | NanoBRET Fold Response (TACR1, 0.1μM tracer): 0.99; NanoBRET Fold Response (TACR1, 1μM tracer): 0.96
O=C(CCOCCOCCOCCOCCNC(=O)CCc1ccc2n1[B-](F)(F)[N+]1=C(c3ccc[nH]3)C=CC1=C2)NCCCN1CCN(C2=Nc3ccccc3Oc3ccc(Cl)cc32)CC1 [Loxapine-a-2-NB590] | 1.06 | 1.12 | 
COc1ccccc1N1CCN(CCCCN2C(=O)c3ccc(CNC(=O)CCOCCOCCOCCOCCNC(=O)CCc4ccc5n4[B-](F)(F)[N+]4=C(c6ccc[nH]6)C=CC4=C5)cc3C2=O)CC1 [NAN-190-2-NB590] | 0.98 |  | 
COc1ccccc1N1CCN(CCCCN2C(=O)c3ccc(CNC(=O)CCOCCNC(=O)c4ccc(CNC(=O)CCc5ccc6n5[B-](F)(F)[N+]5=C(c7ccc[nH]7)C=CC5=C6)cc4)cc3C2=O)CC1 [NAN-190-3-NB590] | 1.13 | 1.11 | 
O=C(CCc1ccc2n1[B-](F)(F)[N+]1=C(c3ccc[nH]3)C=CC1=C2)NCc1ccc(C(=O)NCCOCCC(=O)N[C@@H]2CC[C@@]3(O)[C@H]4Cc5ccc(O)c6c5[C@@]3(CCN4CC3CC3)[C@H]2O6)cc1 [Naltrexone-3-NB590] | 1.06 | 0.90 | 
Cc1cc2c(s1)Nc1ccccc1N=C2N1CCN(CCCNC(=O)CCOCCOCCOCCOCCNC(=O)CCc2ccc3n2[B-](F)(F)[N+]2=C(c4ccc[nH]4)C=CC2=C3)CC1 [Olanzapine-a-2-NB590] | 1.04 | 0.92 | 
O=C(CCc1ccc2n1[B-](F)(F)[N+]1=C(c3ccc[nH]3)C=CC1=C2)NCc1ccc(C(=O)NCCOCCOCCNCC(O)COc2cccc3ccccc23)cc1 (stereo not shown) [Propranolol-3-NB590] |  |  | NanoBRET Fold Response (TACR1, 0.1μM): 0.99; NanoBRET Fold Response (TACR1, 1μM): 1.00
O=C(CCc1ccc2n1[B-](F)(F)[N+]1=C(c3ccc[nH]3)C=CC1=C2)NCCOCCOCCNC(=O)OCCOCCN1CCN(C2=Nc3ccccc3Sc3ccccc32)CC1 [Quetiapine-a-2-NB590] | 0.97 | 0.83 | 
Cc1nc2n(c(=O)c1CCN1CCC(c3noc4cc(F)ccc34)CC1)CCCC2OC(=O)NCCOCCOCCOCCOCCNC(=O)CCc1ccc2n1[B-](F)(F)[N+]1=C(c3ccc[nH]3)C=CC1=C2 (stereo not shown) [Risperidone-2-NB590] | 1.10 | 0.95 | 
CC(C)N(CC[C@H](c1ccccc1)c1cc(CCNC(=O)CCOCCOCCOCCOCCNC(=O)CCc2ccc3n2[B-](F)(F)[N+]2=C(c4ccc[nH]4)C=CC2=C3)ccc1O)C(C)C [Tolterodine-2-NB590] | 1.16 | 1.01 | 
CC(C)N(CC[C@H](c1ccccc1)c1cc(CCNC(=O)c2ccc(CNC(=O)CCc3ccc4n3[B-](F)(F)[N+]3=C(c5ccc[nH]5)C=CC3=C4)cc2)ccc1O)C(C)C [Tolterodine-BZ-NB590] | 0.93 | 1.01 | 
